In publication PMC6449294, “SNAPshots of the MCHR1: a Comparison Between the PET-Tracers [^18F]FE@SNAP and [^11C]SNAP-7941” (Molecular Imaging and Biology, 2018):
Like-named read-outs stand apart in the source and are kept apart here.

Assays:
native CHO-K1 cells = assay: Kinetic real-time cell-binding study on native CHO-K1 cells (negative control, unspecific uptake); type: cell-based, Chinese hamster; settings: result in words
Protocol: Kinetic real-time cell-binding studies were performed on adherent Chinese hamster ovary (CHO-K1) cells (negative control) and CHO-K1 cells stably expressing the human MCHR1 or MCHR2 (PerkinElmer®; Waltham, MA, USA) with [^11C]SNAP-7941 and [^18F]FE@SNAP as previously reported. The cells were cultured in Ham’s F-12 medium (Gibco®, Life Technologies) with additives (1 % penicillin-streptomycin-glutamine (PSG), 10 % fetal bovine serum (FBS), and 300-μg/m Geneticin (G-418)) and incubated in a humidified 5 % CO2 atmosphere at 37 °C. For the preparation of the binding experiment, approximately 10^6 cells were seeded as a monolayer on the bottom of a tilted cell culture dish (100 mm × 20 mm, CELLSTAR®, Greiner Bio-One) and incubated with 2-ml medium for 24 h to avoid a spreading of the cells over the whole Petri dish. In the next step, the medium was discarded and the Petri dish was placed in a horizontal position with 10-ml medium for additional 24 h. […] Unspecific radiotracer uptake was determined with native CHO-K1 cells. […] Association-time curves were monitored in real-time until the binding equilibrium was achieved. The observed rate constant of the association reaction (kobs) was determined using non-linear regression curve fitting algorithms implemented in GraphPad Prism 6.0 (GraphPad Software, Inc., San Diego, CA, USA), as previously reported. […]

[1] = Ex vivo metabolites in rat brain (radio-HPLC)
Protocol: For the analysis of potential radiometabolites, blood samples (50–80 μl) from rats were withdrawn at 10 and 45 min for [^11C]SNAP-7941 and at 10, 30, and 60 min for [^18F]FE@SNAP and immediately subjected to the equivalent amount of acetonitrile, homogenized, and stored on ice before processing. Additionally, [^18F]FE@SNAP was administered to three rats, which were sacrificed after 45 min. Whole brains were harvested and homogenized with equivalent amounts (500–800 μl) of acetonitrile and 0.9 % saline solution using an ULTRA-TURRAX® (T25 basic, IKA Laboratory Equipment, Staufen, Germany). Subsequently, blood and brain were centrifuged (23,000 ×g, 4 min, 4 °C; Hettich Universal 30RF, Tuttlingen, Germany), and the obtained supernatant was analyzed by an analytical HPLC equipped with a radioactivity detector (radio-HPLC) (stationary phase: Chromolith® Performance RP-18e, 100–4.6 mm; precolumn: Chromolith® Guard Cartridge RP-18e, 5–4.6 mm; Merck, Darmstadt, Germany), mobile phase: (water/acetic acid 97.5/2.5 v/v; 2.5 g/l ammonium acetate; pH 3.5)/acetonitrile 70/30 v/v; flow: 1 ml/min, λ = 254 nm). The ratio between metabolite and intact radiotracer was calculated using quantitative HPLC analysis.

[2] = design: method as in earlier work; settings: previous studies; ref 30 and 34 (table), 32 and 36; cited from earlier work
[3] = design: method as in PMID 23829932, PMID 24106662, PMID 27033361; settings: result in words, not determined in this paper for this tracer; cited from earlier work

| SMILES | accumulation on native CHO-K1 cells (native CHO-K1 cells) | intact tracer in rat brain ([1]; 45 min) | Metabolism in rat brain ([1]; ex vivo, result in words) | Lipophilicity (logD) [2] | Metabolism in rat brain [3] |
| --- | --- | --- | --- | --- | --- |
| COCC1=C(C(=O)OCC[18F])C(c2ccc(F)c(F)c2)N(C(=O)NCCCN2CCC(c3cccc(NC(C)=O)c3)CC2)C(=O)N1 (stereo not shown) [[^18F]FE@SNAP] | negligible accumulation | 22.37 ± 5.8% | Rapidly metabolized | 3.83 ± 0.1 |  |
| COCC1=C(C(=O)O[11CH3])C(c2ccc(F)c(F)c2)N(C(=O)NCCCN2CCC(c3cccc(NC(C)=O)c3)CC2)C(=O)N1 (stereo not shown) [[^11C]SNAP-7941] | negligible accumulation |  |  | 3.29 ± 0.01 | Stable |
